In data set [1] the test system is P. yoelii nigeriensis (MDR II). Put plainly: Resistance pattern of P. yoelii nigeriensis (MDR II) strain to antimalarials/antibiotics (oral) in Swiss mice. Format: in vivo. As for the experimental part:
Swiss mice weighing 20±1 to 25±g of either sex and random laboratory bred at Central Drug Research Institute, Lucknow were used. Mice were routinely infected with 1×10^5 parasitized RBC intraperitoneally using sterile citrate saline as diluent for infected blood. […] From day 4 onwards, tail blood smears were examined after Giemsa staining and percent parasitaemia and mortality was recorded. The parasite (MDR strain) was lethal for Swiss mice and mice died in 6-8 days after developing parasitaemia above 40% to 100% infection of RBC, Mortality was 100% in mice.

The conditions of data set [2]: im; cited from earlier work.
For data set [3] the following is noted: human, in vivo; cited from earlier work.
Data set [4] deals with P. falciparum. Conditions: rectal suppository, in 48-56 h; cited from earlier work.

Regarding `CCN(CC)Cc1cc(Nc2ccnc3cc(Cl)ccc23)ccc1O` [Amodiaquine], in data set [1] (128 mg/kg × 4 days), the Parasite response entry is “Resistant”.

As for `C[C@H]1c2cccc(O)c2C(=O)C2=C(O)[C@]3(O)C(=O)C(C(N)=O)=C(O)[C@@H](N(C)C)[C@@H]3[C@@H](O)[C@@H]21` [Doxycycline], the Parasite response result in data set [1] (25 mg/kg × 4 days) was “Resistant”.

Turning to `OC(c1cc(C(F)(F)F)nc2c(C(F)(F)F)cccc12)C1CCCCN1` (stereo not shown) [Mefloquine], the Parasite response result in data set [1] (128 mg/kg × 4 days) is “Resistant”.

On to `O=C(O)c1cn(C2CC2)c2cc(N3CCNCC3)c(F)cc2c1=O` [Ciprofloxacine], for which the Parasite response result in data set [1] (50 mg/kg × 4 days) is recorded as “Resistant”.

As to `CN(C)[C@@H]1C(O)=C(C(N)=O)C(=O)[C@@]2(O)C(O)=C3C(=O)c4c(O)ccc(Cl)c4[C@@H](O)[C@H]3C[C@@H]12` [Demeclocycline], in data set [1] (500 mg/kg × 4 days), the Parasite response result is recorded as “Resistant”.

For the compound `CCc1nc(N)nc(N)c1-c1ccc(Cl)cc1` [Pyrimethamine], in data set [1] (16 mg/kg × 4 days), the Parasite response result is listed as “Resistant”.

As for `C[C@H]1[C@H](OC(=O)CCC(=O)O)O[C@@H]2O[C@@]3(C)CC[C@H]4[C@H](C)CC[C@@H]1[C@@]24OO3` [artesunate], the LD50 in data set [2] is recorded as 475 mg/kg.

As to `CCn1cc(C(=O)O)c(=O)c2cc(F)c(N3CCNCC3)cc21` [Norfloxacine], in data set [1] (50 mg/kg × 4 days), the Parasite response result is listed as “Resistant”.

As to `C=C[C@H]1C[N@@]2CC[C@H]1C[C@H]2[C@H](O)c1ccnc2ccc(OC)cc12` [Quinine], the Parasite response result in data set [1] (400 mg/kg × 4 days) was “Resistant”.

`CCN(CC)CCCC(C)Nc1c2ccc(Cl)cc2nc2ccc(OC)cc12` (stereo not shown) [Mepacrine]: the Parasite response result in data set [1] (128 mg/kg × 4 days) was “Resistant”.

For the compound `CN(C)C1C(=O)C(C(N)=O)=C(O)C2(O)C(=O)C3=C(O)c4c(O)cccc4C(C)(O)C3C(O)C12` (stereo not shown) [Oxytetracycline], the Parasite response entry in data set [1] (500 mg/kg × 4 days) was “Resistant”.

As to `CCCCN(CCCC)CCC(O)c1cc2c(Cl)cc(Cl)cc2c2cc(C(F)(F)F)ccc12` (stereo not shown) [Halofantrine], the Parasite response result in data set [1] (32 mg/kg × 4 days) is recorded as “Resistant”. Further, the Cardiotoxicity entry in data set [3] is “increased risk of cardiotoxicity”.

In the case of `C[C@@H]1CC[C@H]2[C@@H](C)C(=O)O[C@@H]3O[C@@]4(C)CC[C@@H]1[C@]32OO4` [artemisinin], in data set [4], the “Dose needed for complete parasite clearance” value was 2800 mg.

For the compound `CCN(CC)CCCC(C)Nc1ccnc2cc(Cl)ccc12` (stereo not shown) [Chloroquine], the Parasite response result in data set [1] (128 mg/kg × 4 days) was “Resistant”.

Consider `C=C[C@H]1C[N@@]2CC[C@H]1C[C@@H]2[C@@H](O)c1ccnc2ccc(OC)cc12` [Quinidine], for which the Parasite response result in data set [1] (400 mg/kg × 4 days) is on record as “Resistant”.

`CC[C@H]1OC(=O)[C@H](C)[C@@H](O[C@H]2C[C@@](C)(OC)[C@@H](O)[C@H](C)O2)[C@H](C)[C@@H](O[C@@H]2O[C@H](C)C[C@H](N(C)C)[C@H]2O)[C@](C)(O)C[C@@H](C)C(=O)[C@H](C)[C@@H](O)[C@]1(C)O` [Erythromycin]: in data set [1] (250 mg/kg × 4 days), the Parasite response result was “Resistant”.

Turning to `COc1cc(C)c2c(Oc3cccc(C(F)(F)F)c3)c(OC)cc(NC(C)CCCN)c2n1` (stereo not shown) [WR238605], the Parasite response result in data set [1] (10 mg/kg × 7 days) was “Resistant”.

Consider `CN(C)C1C(=O)C(C(N)=O)=C(O)C2(O)C(=O)C3=C(O)c4c(O)cccc4C(C)(O)C3CC12` (stereo not shown) [Tetracycline], for which the Parasite response entry in data set [1] (500 mg/kg × 4 days) is on record as “Resistant”.

The record behind these values is US6326023A, “Synergistic anti-malarial formulation” (priority 2000, dated 2001).
